Results published in patent US20210395210A1, “INHIBITION OF BACTERIAL CHAPERONIN SYSTEMS” (THE TRUSTEES OF INDIANA UNIVERSITY, priority 2018, published 2021).
Like-named read-outs stand apart in the source and are kept apart here. Each block holds one compound with its values, some of them ahead of it.

What was measured:
[1] = molecular target: T1, human HSP60/10 (Homo sapiens, UniProt P10809); assay: HSP60/10-mediated dMDH refolding assay; type: biochemical
T1 construct: octa-Histidine tag (TEV-cleavable) (N, cleaved yes); made in house; host or cells: HSP60 in E. coli Rosetta 2 (DE3); HSP10 in Rosetta 2 (DE3) pLysS
T1 sequence (P10809 27-573): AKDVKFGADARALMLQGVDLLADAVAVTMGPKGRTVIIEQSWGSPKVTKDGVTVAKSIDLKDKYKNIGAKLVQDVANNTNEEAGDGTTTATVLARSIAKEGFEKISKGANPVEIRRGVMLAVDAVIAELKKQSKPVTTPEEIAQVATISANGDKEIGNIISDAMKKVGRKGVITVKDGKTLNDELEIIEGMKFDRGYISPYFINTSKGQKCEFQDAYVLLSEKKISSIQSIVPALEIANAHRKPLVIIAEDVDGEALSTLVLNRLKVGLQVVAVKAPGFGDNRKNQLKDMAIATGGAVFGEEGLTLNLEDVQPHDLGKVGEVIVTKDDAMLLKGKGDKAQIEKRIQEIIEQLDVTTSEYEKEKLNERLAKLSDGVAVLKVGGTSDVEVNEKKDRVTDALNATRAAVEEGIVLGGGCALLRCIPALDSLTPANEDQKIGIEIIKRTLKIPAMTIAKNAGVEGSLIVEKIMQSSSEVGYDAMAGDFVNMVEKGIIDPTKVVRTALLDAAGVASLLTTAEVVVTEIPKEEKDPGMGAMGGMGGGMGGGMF
Protocol: Reagent preparation: For these assays, four primary reagent stocks were prepared: 1) GroEUES-dMDH or HSP60/10-dMDH binary complex stock; 2) ATP initiation stock; 3) EDTA quench stock; 4) MDH enzymatic assay stock. Denatured MDH (dMDH) was prepared by 2-fold dilution of MDH (5 mg/ml, soluble pig heart MDH from Roche, product #10127248001) with denaturant buffer (7 M guanidine-HCl, 200 mM Tris, pH 7.4, and 50 mM DTT). MDH was completely denatured by incubating at room temperature for 45 min. The binary complex solutions were prepared by slowly adding the dMDH stock to a stirring stock with GroEL (or HSP60) in folding buffer (50 mM Tris-HCl, pH 7.4, 50 mM KCl, 10 mM MgCl2, and 1 mM DTT), followed by addition of GroES (or HSP10). The binary complex stocks were prepared immediately prior to dispensing into the assay plates and had final protein concentrations of 83.3 nM GroEL (Mr 800 kDa) or HSP60 (Mr 400 kDa), 100 nM GroES or HSP10 (Mr 70 kDa), and 20 nM dMDH in folding buffer. For the ATP initiation stock, ATP solid was diluted into folding buffer to a final concentration of 2.5 mM. Quench solution contained 600 mM EDTA (pH 8.0). The MDH enzymatic assay stock consisted of 20 mM sodium mesoxalate and 2.4 mM NADH in reaction buffer (50 mM Tris-HCl, pH 7.4, 50 mM KCl, and 1 mM DTT).
Assay Protocol: First, 30 μL aliquots of the GroEL/ES-dMDH or HSP60/10-dMDH binary complex stocks were dispensed into clear, 384-well polystyrene plates. […] The chaperonin-mediated refolding cycles were initiated by addition of 20 μL of ATP stock (reagent concentrations during refolding cycle: 50 nM GroEL or HSP60, 60 nM GroES or HSP10, 12 nM dMDH, 1 mM ATP, and compounds of 100 μM to 46 nM, 3-fold dilution series). The refolding reactions were incubated at 37° C. […] Next, the assay was quenched by addition of 10 μL of the EDTA to final concentration of 100 mM. […] A340 nm measurements were recorded at 0.5 minutes (start point) and at successive time points until the amount of NADH consumed reached ˜90% (end point, generally between 20-35 minutes). The differences between the start and end point A340 values were used to calculate the % inhibition of the GroEL/ES or HSP60/10 machinery by the compounds. […] Results presented represent the averages of IC50 values obtained from at least quadriplicate (duplicate of duplicate) replicates.

[2] = tested on: Pseudomonas aeruginosa (ATCC 10145); assay: Bacterial proliferation assay, P. aeruginosa; type: cell-based
Text: Bacterial Strains: Enterococcus faecium—(Orla-Jensen) Schleifer and Kilpper-Balz strain NCTC 7171 (ATCC 19434); Drug sensitive Staphylococcus aureus—Rosenbranch strain Seattle 1945 (ATCC 25923); Methicillin resistant S. aureus (MRSA)—Rosenbach strain HPV107 (ATCC BAA-44); Klebsiella Pneumonia—(Schroeter) Trevisan strain NCTC 9633 (ATCC 13883); Acinetobacter baumannii—Bouvet and Grimont strain 2208 (ATCC 19606); Pseudomonas aeruginosa—(Schroeter) Migula strain NCTC 10332 (ATCC 10145); Enterobacter cloacae—E. cloacae, subsp. cloacae (Jordan) Hormaeche and Edwards strain CDC 442-68 (ATCC 13047).
Growth Media: All bacteria were grown in Brain Heart Infusion (BHI) broth/agar (Becton, Dickinson and Company). All liquid cultures were grown in BHI media supplemented with 25 mg/L Ca^2+ and 12.5 mg/L Mg^2+ to mimic free physiological concentrations of these cations. A 10 mg/mL Ca^2+ stock solution was prepared by dissolving 3.68 g of CaCl2.2H2O in 100 mL of deionized water, and a 10 mg/mL Mg^2+ stock solution was prepared by dissolving 8.36 g of MgCl2.6H2O in 100 mL deionized water. Both stock solutions were filter-sterilized using 0.2 μm pore size cellulose-acetate filters. 2.5 mL of the sterile 10 mg/mL Ca^2+ stock and 1.25 mL of the sterile 10 mg/mL Mg^2+ stock solutions were added per 1 L of autoclaved BHI medium to obtain 25 mg/L Ca^2+ and 12.5 mg/L Mg^2+ ions, respectively.
General Assay Protocol: Stock bacterial cultures were streaked onto BHI agar plates and grown overnight at 37° C. Fresh aliquots of broth were inoculated with single bacterial colonies and the cultures were grown overnight at 37° C. with shaking (240 rpm) in cation adjusted BHI media. The following morning, the overnight cultures were sub-cultured (1:5 dilution) into fresh aliquots of cation adjusted BHI media and grown at 37° C. for 1-2 hours with shaking. After 2 h, cultures were diluted into fresh media to achieve final OD600 readings of 0.017. Aliquots of these diluted cultures (30 μL) were added to clear, flat-bottom, 384-well polystyrene plates that were stamped with 0.5 μL of test compounds in 20 μL media. […] Plates were sealed with “Breathe Easy” oxygen permeable membranes (Diversified Biotech) and left to incubate at 37° C. without shaking (stagnant assay). OD600 nm readings were taken at either 6-8 h (S. aureus, MRSA, K. pneumonia, E. cloacae, and P. aeruginosa) or 24 h (E. faecium and A. baumannii). A second set of baseline control plates were prepared analogously, but without any bacteria added, to correct for possible compound absorbance and/or precipitation. Plates were then read at 600 nm using a Molecular Devices SpectraMax Plus384 microplate reader. […] Results presented represent the averages of EC50 values obtained from at quadriplicate (duplicate of duplicate) replicates.

[3] = human HSP60/10-dMDH refolding assay, read-out: HSP60/10-dMDH Refolding IC50
[4] = log(IC50) ± standard deviation, human HSP60/10-dMDH refolding assay, read-out: HSP60/10-dMDH Refolding Assay log(IC50) (converted)
[5] = ATCC10145, OD600 at 6-8 h, read-out: Bacterial Proliferation EC50 P. aeruginosa
[6] = ATCC10145, log of EC50 (μM scale), with standard deviation, read-out: log(EC50) Bacterial Proliferation Assay P. aeruginosa (converted)
[7] = ATCC10145, read-out: Bacterial Proliferation EC50 P. aeruginosa
[8] = ATCC10145, read-out: log(EC50) Bacterial Proliferation Assay P. aeruginosa (converted)

SMILES: CC1(C)S[C@@H]2[C@H](NC(=O)[C@H](N)c3ccccc3)C(=O)N2[C@H]1C(=O)O [Ampicillin, ampicillin, reference compound]
- IC50 [1, 3]: > 100 µM
- IC50 [1, 4]: > 100 µM
- EC50 [2, 5]: > 100 µM
- EC50 [2, 6]: > 100 µM

SMILES: Cc1cc(C(C#N)c2ccc(Cl)cc2)c(Cl)cc1NC(=O)c1cc(I)cc(I)c1O (stereo not drawn) [Closantel, closantel, reference compound]
- EC50 [2, 7]: > 100 µM
- EC50 [2, 8]: > 100 µM

SMILES: O=C(Nc1ccc(Sc2nc3ccccc3s2)c(Cl)c1)c1cc(Br)cc(Br)c1O [Compound 1, N-(4-(Benzo[d]thiazol-2-ylthio)-3-chlorophenyl)-3,5-dibromo-2-hydroxybenzamide]
- IC50 [1, 3]: 4.2 µM
- IC50 [1, 4]: 4.17 µM
- EC50 [2, 7]: > 100 µM
- EC50 [2, 8]: > 100 µM

SMILES: O=C(Nc1ccc(Sc2nc3ccccc3s2)c(Cl)c1)c1cccc(Br)c1O [Compound 2, N-(4-(Benzo[d]thiazol-2-ylthio)-3-chlorophenyl)-3-bromo-2-hydroxybenzamide]
- IC50 [1, 3]: 6.9 µM
- IC50 [1, 4]: 6.92 µM
- EC50 [2, 7]: > 100 µM
- EC50 [2, 8]: > 100 µM

SMILES: O=C(Nc1ccc(Sc2nc3ccccc3s2)c(Cl)c1)c1cc(Br)ccc1O [Compound 3, N-(4-(Benzo[d]thiazol-2-ylthio)-3-chlorophenyl)-5-bromo-2-hydroxybenzamide]
- IC50 [1, 3]: > 100 µM
- IC50 [1, 4]: > 100 µM
- EC50 [2, 7]: > 100 µM
- EC50 [2, 8]: > 100 µM

SMILES: O=C(Nc1ccc(Sc2nc3ccccc3s2)c(Cl)c1)c1ccccc1O [Compound 4, N-(4-(Benzo[d]thiazol-2-ylthio)-3-chlorophenyl)-2-hydroxybenzamide]
- IC50 [1, 3]: > 100 µM
- IC50 [1, 4]: > 100 µM
- EC50 [2, 5]: > 100 µM
- EC50 [2, 6]: > 100 µM

SMILES: O=C(Nc1ccc(Sc2nc3ccccc3s2)cc1)c1cc(Br)cc(Br)c1O [Compound 5, N-(4-(Benzo[d]thiazol-2-ylthio)phenyl)-3,5-dibromo-2-hydroxybenzamide]
- IC50 [1, 3]: 4.7 µM
- IC50 [1, 4]: 4.68 µM
- EC50 [2, 7]: > 100 µM
- EC50 [2, 8]: > 100 µM

SMILES: O=C(Nc1ccc(Sc2nc3ccccc3s2)cc1)c1cccc(Br)c1O [Compound 6, N-(4-(Benzo[d]thiazol-2-ylthio)phenyl)-3-bromo-2-hydroxybenzamide]
- IC50 [1, 3]: 26 µM
- IC50 [1, 4]: 25.7 µM
- EC50 [2, 7]: > 100 µM
- EC50 [2, 8]: > 100 µM

SMILES: O=C(Nc1ccc(Sc2nc3ccccc3s2)cc1)c1cc(Br)ccc1O [Compound 7, N-(4-(Benzo[d]thiazol-2-ylthio)phenyl)-5-bromo-2-hydroxybenzamide]
- IC50 [1, 3]: > 100 µM
- IC50 [1, 4]: > 100 µM
- EC50 [2, 7]: > 100 µM
- EC50 [2, 8]: > 100 µM

SMILES: O=C(Nc1ccc(Sc2nc3ccccc3s2)cc1)c1ccccc1O [Compound 8, N-(4-(Benzo[d]thiazol-2-ylthio)phenyl)-2-hydroxybenzamide]
- IC50 [1, 3]: > 100 µM
- IC50 [1, 4]: > 100 µM
- EC50 [2, 5]: > 100 µM
- EC50 [2, 6]: > 100 µM

SMILES: O=C(Nc1cccc(Cl)c1)c1cc(Br)cc(Br)c1O [Compound 9, 3,5-Dibromo-N-(3-chlorophenyl)-2-hydroxybenzamide]
- IC50 [1, 3]: 29 µM
- IC50 [1, 4]: 28.8 µM
- EC50 [2, 7]: > 100 µM
- EC50 [2, 8]: > 100 µM

- IC50 [1, 3]: > 100 µM
- IC50 [1, 4]: > 100 µM
- EC50 [2, 5]: > 100 µM
- EC50 [2, 6]: > 100 µM
SMILES: O=C(Nc1cccc(Cl)c1)c1cccc(Br)c1O [Compound 10, 3-Bromo-N-(3-chlorophenyl)-2-hydroxybenzamide]

SMILES: O=C(Nc1cccc(Cl)c1)c1cc(Br)ccc1O [Compound 11, 5-Bromo-N-(3-chlorophenyl)-2-hydroxybenzamide]
- IC50 [1, 3]: > 100 µM
- IC50 [1, 4]: > 100 µM
- EC50 [2, 7]: > 100 µM
- EC50 [2, 8]: > 100 µM

SMILES: O=C(Nc1cccc(Cl)c1)c1ccccc1O [Compound 12, N-(3-Chlorophenyl)-2-hydroxybenzamide]
- IC50 [1, 3]: > 100 µM
- IC50 [1, 4]: > 100 µM
- EC50 [2, 5]: > 100 µM
- EC50 [2, 6]: > 100 µM

SMILES: O=C(Nc1ccccc1)c1cc(Br)cc(Br)c1O [Compound 13, 3,5-Dibromo-2-hydroxy-N-phenylbenzamide]
- IC50 [1, 3]: 63 µM
- IC50 [1, 4]: 63.1 µM
- EC50 [2, 7]: > 100 µM
- EC50 [2, 8]: > 100 µM

SMILES: O=C(Nc1ccccc1)c1cccc(Br)c1O [Compound 14, 3-Bromo-2-hydroxy-N-phenylbenzamide]
- IC50 [1, 3]: > 100 µM
- IC50 [1, 4]: > 100 µM
- EC50 [2, 5]: > 100 µM
- EC50 [2, 6]: > 100 µM

SMILES: O=C(Nc1ccccc1)c1cc(Br)ccc1O [Compound 15, 5-Bromo-2-hydroxy-N-phenylbenzamide]
- IC50 [1, 3]: > 100 µM
- IC50 [1, 4]: > 100 µM
- EC50 [2, 5]: > 100 µM
- EC50 [2, 6]: > 100 µM

SMILES: O=C(Nc1ccccc1)c1ccccc1O [Compound 16, 2-Hydroxy-N-phenylbenzamide]
- IC50 [1]: > 100 µM
- HSP60/10-dMDH Refolding Assay log(IC50) ([1]; log(IC50) ± standard deviation, human HSP60/10-dMDH refolding assay): >2
- EC50 [2, 7]: > 100 µM
- EC50 [2, 8]: > 100 µM

SMILES: O=C(Nc1ccc(Sc2nc3ccccc3s2)c(Cl)c1)c1cc(Br)cc(Br)c1 [Compound 17, N-(4-(Benzo[d]thiazol-2-ylthio)-3-chlorophenyl)-3,5-dibromobenzamide]
- IC50 [1, 3]: > 100 µM
- IC50 [1, 4]: > 100 µM
- EC50 [2, 5]: > 100 µM
- EC50 [2, 6]: > 100 µM

SMILES: O=C(Nc1ccc(Sc2nc3ccccc3s2)c(Cl)c1)c1cccc(Br)c1 [Compound 18, N-(4-(Benzo[d]thiazol-2-ylthio)-3-chlorophenyl)-3-bromobenzamide]
- IC50 [1, 3]: > 100 µM
- IC50 [1, 4]: > 100 µM
- EC50 [2, 5]: > 100 µM
- EC50 [2, 6]: > 100 µM

SMILES: O=C(Nc1ccc(Sc2nc3ccccc3s2)c(Cl)c1)c1ccccc1 [Compound 19, N-(4-(Benzo[d]thiazol-2-ylthio)-3-chlorophenyl)benzamide]
- IC50 [1, 3]: > 100 µM
- IC50 [1, 4]: > 100 µM
- EC50 [2, 5]: > 100 µM
- EC50 [2, 6]: > 100 µM

SMILES: O=C(Nc1ccc(Oc2ccc(Cl)cc2)c(Cl)c1)c1cc(I)cc(I)c1O [Rafoxanide, rafoxanide, reference compound]
- EC50 [2, 7]: > 100 µM
- EC50 [2, 8]: > 100 µM
